Results on 26 compounds are retold here after patent US7659284B2, “Thiazolopyridine kinase inhibitors” (Janssen Pharmaceutica NV, priority 2004, dated 2010).

The target of this test is T1, EGFR (Homo sapiens, UniProt P00533).
T1 construct: started at nucleotide 2189 (corresponding to amino acid 667) and ended at the termination codon; made in house; host or cells: Sf9 insect cells (baculovirus)
The experiment in a line: EGFR Kinase Assay (GST-EGFR, 33P-ATP, Streptavidin Flashplate). The settings on record: GST-EGFR intracellular portion, 5 μM ATP. It counts as biochemical. From the text: The EGFR kinase used was a fusion of Glutathione-S-Transferase (GST) and a PCR amplified intracellular portion of EGFR (NM_005228). The intracellular portion of EGFR started at nucleotide 2189 (corresponding to amino acid 667) and ended at the termination codon. The portion was PCR amplified with primers that added the lambda attB sequences to each end, recombined into an entry vector, then into a GST destination vector (as described in Gateway Technologies Manual by Invitrogen Corporation, Carlsbad, Calif.).
The destination vector was recombined in the DH10BAC strain of bacteria to produce a bacmid. The bacmid was transfected into Sf 9 cells and the supernatant containing the baculovirus was collected. The GSTEGFR protein was purified using large cultures of Sf 9 cells infected with stock virus. After an appropriate period of time, the cells were collected and lysed. The GSTEGFR was then purified from the lysate on Glutathione-Sepharose columns (as described by Amersham Biosciences, Buckinghamshire, United Kingdom).
The EGFR substrate was prepared by biotinylating polyGluTyr (128 mg) (Sigma, St. Louis, Mo.) in a 1×PBS buffer incubated together with a 12-fold molar excess of Sulfo-NHS-LC-Biotin on ice for at least 2 hrs. The free biotin was separated from the biotinylated polyGluTyr on a gel filtration column.
A mixture of a 10× kinase buffer (500 mM Tris at pH 8.0, 100 mM Magnesium Chloride and 1 mM Sodium Vanadate), DTT (1 mM final from 500 mM stock), ATP (5 μM final from 10 mM stock), biotinylated polyGluTyr (10 μg/μL stock), γ-^33P ATP (10 μCi/μL stock) and water was added to each well (90 μL/well) of a Streptavidin Flashplate (Perkin Elmer, Wellesley, Mass.).
Test compound in 100% DMSO (2 μL) was added to the appropriate wells. Diluted GSTEGFR (1:300 dilution in 50 mM Tris at pH 8.0 and 0.1% bovine serum albumin) (10 μL) was added to the wells to initiate the reactions.
The plates were incubated at 30° C. for 1 hr with shaking. The reacted contents were removed and the plates were sequentially washed three times with a 1×PBS stop buffer (300 μL without Magnesium and Calcium) and 100 mM EDTA. After the final wash, the same stop buffer (200 μL) was added to the wells. The plates were then sealed and read on the TopCount scintillation counter.
Test compounds were assayed in triplicate at 16 concentrations at half-log dilutions starting at 200 uM. A maximum and minimum signal for the assay was determined on each plate. The percent inhibition of a test compound was calculated accord to the formula
For a series of test concentrations, the IC50 was derived by graphing percent inhibition against the log of the concentrations tested for a given compound. For those compounds without an IC50, the percent inhibition results are shown at a test concentration of 2 μM.

T1 sequence (P00533 667-1210 limits assumed): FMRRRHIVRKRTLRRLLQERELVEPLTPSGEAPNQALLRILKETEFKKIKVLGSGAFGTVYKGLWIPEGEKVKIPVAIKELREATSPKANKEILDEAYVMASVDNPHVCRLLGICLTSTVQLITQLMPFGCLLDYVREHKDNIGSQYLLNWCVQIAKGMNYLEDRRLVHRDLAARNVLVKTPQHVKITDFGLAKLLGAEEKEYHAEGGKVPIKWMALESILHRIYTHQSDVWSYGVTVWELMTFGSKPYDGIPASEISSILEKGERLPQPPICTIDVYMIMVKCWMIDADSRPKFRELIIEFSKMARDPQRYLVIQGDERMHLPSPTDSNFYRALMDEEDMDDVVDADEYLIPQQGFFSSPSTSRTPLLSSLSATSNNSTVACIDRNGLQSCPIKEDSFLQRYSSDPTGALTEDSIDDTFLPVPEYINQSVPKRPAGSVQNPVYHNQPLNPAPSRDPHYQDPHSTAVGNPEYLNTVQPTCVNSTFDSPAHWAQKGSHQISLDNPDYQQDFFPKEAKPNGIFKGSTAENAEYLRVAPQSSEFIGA

Take `N#Cc1cnc2nc(Nc3ccc(CN4CCC(N)CC4)cc3)sc2c1Nc1ccc(F)c(Cl)c1` [Cpd 31, 2-[4-(4-amino-piperidin-1-ylmethyl)-phenylamino]-7-(3-chloro-4-fluoro-phenylamino)-thiazolo[4,5-b]pyridine-6-carbonitrile]: the concentration for half-maximal inhibition (IC50) (commonly the concentration that gives 50% inhibition) amounted to 60.4 nM. For `N#Cc1cnc2nc(Nc3ccc(CN4CCC[C@H]4CO)cc3)sc2c1Nc1ccc(F)c(Cl)c1` [Cpd 6, 7-(3-chloro-4-fluoro-phenylamino)-2-{4-[(2S)-2-hydroxymethyl-pyrrolidin-1-ylmethyl]-phenylamino}-thiazolo[4,5-b]pyridine-6-carbonitrile] the value was 53 nM; for `CN(C)Cc1ccc(Nc2nc3ncc(C#N)c(Nc4ccc(F)c(Cl)c4)c3s2)cc1` [Cpd 3, 7-(3-chloro-4-fluoro-phenylamino)-2-(4-dimethylaminomethyl-phenylamino)-thiazolo[4,5-b]pyridine-6-carbonitrile], 43.7 nM.

In turn, `CN(C)Cc1ccc(Nc2nc3ncc(C#N)c(Nc4ccc(F)c(Cl)c4)c3s2)cc1Cl` [Cpd 18, 2-(3-chloro-4-dimethylaminomethyl-phenylamino)-7-(3-chloro-4-fluoro-phenylamino)-thiazolo[4,5-b]pyridine-6-carbonitrile] displayed an IC50 of 85.7 nM. With `COCCN(CCOC)S(=O)(=O)c1ccc(Nc2nc3ncc(C#N)c(Nc4ccc(F)c(Cl)c4)c3s2)cc1` [Cpd 5, 4-[7-(3-chloro-4-fluoro-phenylamino)-6-cyano-thiazolo[4,5-b]pyridin-2-ylamino]-N,N-bis-(2-methoxy-ethyl)-benzenesulfonamide], the midpoint of inhibition, the IC50, lay at 63.7 nM. In turn, `CCc1nccn1Cc1ccc(Nc2nc3ncc(C#N)c(Nc4ccc(F)c(Cl)c4)c3s2)cc1` [Cpd 1, 7-(3-chloro-4-fluoro-phenylamino)-2-[4-(2-ethyl-imidazol-1-ylmethyl)-phenylamino]-thiazolo[4,5-b]pyridine-6-carbonitrile] returned an IC50 of 22.6 nM.

Compound `CN(Cc1ccc(Nc2nc3ncc(C#N)c(Nc4ccc(F)c(Cl)c4)c3s2)cc1)C[C@H]1CCCO1` [Cpd 14, 7-(3-chloro-4-fluoro-phenylamino)-2-[(4-{methyl-[(2R)-tetrahydro-furan-2-ylmethyl]-amino}-methyl)-phenylamino]-thiazolo[4,5-b]pyridine-6-carbonitrile] gave an IC50 of 29.3 nM.

Compound `COc1ccc(Nc2nc3ncc(C#N)c(Nc4ccc(F)c(Cl)c4)c3s2)cn1` [Cpd 26, 7-(3-chloro-4-fluoro-phenylamino)-2-(6-methoxy-pyridin-3-ylamino)-thiazolo[4,5-b]pyridine-6-carbonitrile] came in with a half-inhibitory concentration (IC50) of 158 nM.

`COCCN(CCOC)Cc1ccc(Nc2nc3ncc(C#N)c(Nc4ccc(F)c(Cl)c4)c3s2)cc1` [Cpd 4, 2-(4-{[bis-(2-methoxy-ethyl)-amino]-methyl}-phenylamino)-7-(3-chloro-4-fluoro-phenylamino)-thiazolo[4,5-b]pyridine-6-carbonitrile] returned an IC50 of 49 nM. In the case of `N#Cc1cnc2nc(NCCCN3CCOCC3)sc2c1Nc1ccc(F)c(Cl)c1` [Cpd 8, 7-(3-chloro-4-fluoro-phenylamino)-2-(3-morpholin-4-yl-propylamino)-thiazolo[4,5-b]pyridine-6-carbonitrile], the IC50 stood at 2630 nM. In turn, `C#Cc1cccc(Nc2c(C#N)cnc3nc(NCCCN4CCOCC4)sc23)c1` [Cpd 9, 7-(3-ethynyl-phenylamino)-2-(3-morpholin-4-yl-propylamino)-thiazolo[4,5-b]pyridine-6-carbonitrile] yielded an IC50 of 2630 nM. In turn, `C#Cc1cccc(Nc2c(C#N)cnc3nc(Nc4ccc(CN5CCC[C@H]5CO)cc4)sc23)c1` [Cpd 11, 7-(3-ethynyl-phenylamino)-2-{4-[(2S)2-hydroxymethyl-pyrrolidin-1-ylmethyl]-phenylamino}-thiazolo[4,5-b]pyridine-6-carbonitrile] returned an IC50 of 41.7 nM. Compound `N#Cc1cnc2nc(Nc3ccc(CN4CCOCC4)cc3)sc2c1Nc1ccc(Cl)cc1Cl` [Cpd 34, 7-(2,4-dichloro-phenylamino)-2-(4-morpholin-4-ylmethyl-phenylamino)-thiazolo[4,5-b]pyridine-6-carbonitrile] yielded a concentration for half-maximal inhibition (IC50) of 1450 nM. In turn, `CN(Cc1ccc(Nc2nc3ncc(C#N)c(Nc4ccc(F)c(Cl)c4)c3s2)cc1)C1CCOCC1` [Cpd 16, 7-(3-chloro-4-fluoro-phenylamino)-2-(4-{[methyl-(tetrahydro-pyran-4-yl)-amino]-methyl}-phenylamino)-thiazolo[4,5-b]pyridine-6-carbonitrile] had a half-maximal inhibitory concentration (IC50) of 76.4 nM. In the case of `N#Cc1cnc2nc(Nc3ccc(CN4CCOCC4)cc3)sc2c1Nc1cccc(Cl)c1` [Cpd 19, 7-(3-chloro-phenylamino)-2-(4-morpholin-4-ylmethyl-phenylamino)-thiazolo[4,5-b]pyridine-6-carbonitrile] it was 79.5 nM; in that of `N#Cc1cnc2nc(Nc3ccc(NCCCN4CCOCC4)nc3)sc2c1Nc1ccc(F)c(Cl)c1` [Cpd 29, 7-(3-chloro-4-fluoro-phenylamino)-2-[6-(3-morpholin-4-yl-propylamino)-pyridin-3-ylamino]-thiazolo[4,5-b]pyridine-6-carbonitrile], 69.6 nM; in that of `N#Cc1cnc2nc(Nc3ccc(NCCN)nc3)sc2c1Nc1ccc(F)c(Cl)c1` [Cpd 30, 2-[6-(2-amino-ethylamino)-pyridin-3-ylamino]-7-(3-chloro-4-fluoro-phenylamino)-thiazolo[4,5-b]pyridine-6-carbonitrile], 67.7 nM. `N#Cc1cnc2nc(Nc3ccc(Cl)nc3)sc2c1Nc1ccc(F)c(Cl)c1` [Cpd 28, 7-(3-chloro-4-fluoro-phenylamino)-2-(6-chloro-pyridin-3-ylamino)-thiazolo[4,5-b]pyridine-6-carbonitrile] displayed a half-inhibitory concentration (IC50) of 327 nM. `N#Cc1cnc2nc(Nc3ccc(CN4CCOCC4)cc3)sc2c1Nc1ccc(F)c(Cl)c1` [Cpd 2, 7-(3-chloro-4-fluoro-phenylamino)-2-(4-morpholin-4-ylmethyl-phenylamino)-thiazolo[4,5-b]pyridine-6-carbonitrile] gave an IC50 of 78 nM. In the case of `C#Cc1cccc(Nc2c(C#N)cnc3nc(NCCN4CCOCC4)sc23)c1` [Cpd 13, 7-(3-ethynyl-phenylamino)-2-(2-morpholin-4-yl-ethylamino)-thiazolo[4,5-b]pyridine-6-carbonitrile] it was 3280 nM. Take `N#Cc1cnc2nc(Nc3ccc(CNC[C@H]4CCCO4)cc3)sc2c1Nc1ccc(F)c(Cl)c1` [Cpd 21, 7-(3-chloro-4-fluoro-phenylamino)-2-[4-({[(2R)-tetrahydro-furan-2-ylmethyl]-amino}-methyl)-phenylamino]-thiazolo[4,5-b]pyridine-6-carbonitrile]: inhibition was half-maximal at 44.6 nM (IC50). With `N#Cc1cnc2nc(NCCN3CCOCC3)sc2c1Nc1cccc(Cl)c1` [Cpd 12, 7-(3-chloro-phenylamino)-2-(2-morpholin-4-yl-ethylamino)-thiazolo[4,5-b]pyridine-6-carbonitrile], 15800 nM corresponded to half-maximal inhibition (IC50). `N#Cc1cnc2nc(NCc3ccc(CN4CCOCC4)cc3)sc2c1Nc1ccc(F)c(Cl)c1` [Cpd 22, 7-(3-chloro-4-fluoro-phenylamino)-2-(4-morpholin-4-ylmethyl-benzylamino)-thiazolo[4,5-b]pyridine-6-carbonitrile] registered an IC50 of 853 nM.

As for `N#Cc1cnc2nc(Nc3ccc(O)nc3)sc2c1Nc1ccc(F)c(Cl)c1` [Cpd 27, 7-(3-chloro-4-fluoro-phenylamino)-2-(6-hydroxy-pyridin-3-ylamino)-thiazolo[4,5-b]pyridine-6-carbonitrile], the concentration for half-maximal inhibition (IC50) was determined as 207 nM. For the compound `N#Cc1cnc2nc(Nc3ccc(S(=O)(=O)NCCN4CCOCC4)cc3)sc2c1Nc1ccc(F)c(Cl)c1` [Cpd 7, 4-[7-(3-chloro-4-fluoro-phenylamino)-6-cyano-thiazolo[4,5-b]pyridin-2-ylamino]-N-(2-morpholin-4-yl-ethyl)-benzenesulfonamide], the IC50 stood at 28.5 nM. `CN(Cc1ccc(Nc2nc3ncc(C#N)c(Nc4ccc(F)c(Cl)c4)c3s2)cc1)C[C@@H]1CCCO1` [Cpd 15, 7-(3-chloro-4-fluoro-phenylamino)-2-[(4-{methyl-[(2S)-tetrahydro-furan-2-ylmethyl]-amino}-methyl)-phenylamino]-thiazolo[4,5-b]pyridine-6-carbonitrile] registered an IC50 of 76.1 nM.
